Measurements: patent US12152255B2, “ω-Transaminase mutant obtained by DNA synthetic shuffling combined mutation and use” (priority 2020, dated 2024)
Like-named read-outs stand apart in the source and are kept apart here.

Tests used:
[1] = molecular target: Aspergillus terreus ω-transaminase mutant F115L-H210N-M150C-M280C (parent SEQ ID NO: 1; gene SEQ ID NO: 3) (Aspergillus terreus, UniProt Q0C8G1, E253A/F115L/H210N/M150C/M280C); experiment: Kinetic parameters, transamination (acetophenone formation at 245 nm), F115L-H210N-M150C-M280C; assay type: biochemical; conditions: phosphate buffer pH 8.0, 0.1 mM PLP
[2] = molecular target: Aspergillus terreus ω-transaminase mutant F115L-H210N (parent SEQ ID NO: 1; gene SEQ ID NO: 4) (Aspergillus terreus, UniProt Q0C8G1, D231A/F115L/H210N); experiment: Kinetic parameters, transamination (acetophenone formation at 245 nm), F115L-H210N; assay type: biochemical; conditions: phosphate buffer pH 8.0, 0.1 mM PLP
[3] = molecular target: Aspergillus terreus ω-transaminase mutant F115L-H210N-E253A-I295V (parent SEQ ID NO: 1; gene SEQ ID NO: 5) (Aspergillus terreus, UniProt Q0C8G1); experiment: Kinetic parameters, transamination (acetophenone formation at 245 nm), F115L-H210N-E253A-I295V; assay type: biochemical
[4] = molecular target: Aspergillus terreus ω-transaminase mutant I77L-F115L-E133A-H210N-N245D (parent SEQ ID NO: 1; gene SEQ ID NO: 6) (Aspergillus terreus, UniProt Q0C8G1, D224K/E133A/F115L/H210N/I77L/N245D); experiment: Kinetic parameters, transamination (acetophenone formation at 245 nm), I77L-F115L-E133A-H210N-N245D; assay type: biochemical; conditions: phosphate buffer pH 8.0, 0.1 mM PLP
[5] = molecular target: Aspergillus terreus ω-transaminase mutant I77L-Q97E-F115L-L118T-E253A-G292D (parent SEQ ID NO: 1; gene SEQ ID NO: 7) (Aspergillus terreus, UniProt Q0C8G1, D224A/E253A/F115L/G292D/I77L/L118T/Q97E); experiment: Kinetic parameters, transamination (acetophenone formation at 245 nm), I77L-Q97E-F115L-L118T-E253A-G292D; assay type: biochemical; conditions: phosphate buffer pH 8.0, 0.1 mM PLP
[6] = molecular target: Aspergillus terreus ω-transaminase mutant I77L-E133A-N245D-G292D (parent SEQ ID NO: 1; gene SEQ ID NO: 8) (Aspergillus terreus, UniProt Q0C8G1, E133A/G292D/I77L/N245D); experiment: Kinetic parameters, transamination (acetophenone formation at 245 nm), I77L-E133A-N245D-G292D; assay type: biochemical; conditions: phosphate buffer pH 8.0, 0.1 mM PLP
[7] = system: Aspergillus terreus ω-transaminase mutant H210N-N245D-E253A-G292D (parent SEQ ID NO: 1; gene SEQ ID NO: 9); experiment: Kinetic parameters, transamination (acetophenone formation at 245 nm), H210N-N245D-E253A-G292D; assay type: biochemical; conditions: phosphate buffer pH 8.0, 0.1 mM PLP
[8] = molecular target: T1, Aspergillus terreus ω-transaminase, wild type (WT-ATA), SEQ ID NO: 1 (Aspergillus terreus, UniProt Q0C8G1); experiment: Kinetic parameters, transamination (acetophenone formation at 245 nm), WT-ATA; conditions: phosphate buffer pH 8.0, 0.1 mM PLP
T1 sequence (Q0C8G1 1-325): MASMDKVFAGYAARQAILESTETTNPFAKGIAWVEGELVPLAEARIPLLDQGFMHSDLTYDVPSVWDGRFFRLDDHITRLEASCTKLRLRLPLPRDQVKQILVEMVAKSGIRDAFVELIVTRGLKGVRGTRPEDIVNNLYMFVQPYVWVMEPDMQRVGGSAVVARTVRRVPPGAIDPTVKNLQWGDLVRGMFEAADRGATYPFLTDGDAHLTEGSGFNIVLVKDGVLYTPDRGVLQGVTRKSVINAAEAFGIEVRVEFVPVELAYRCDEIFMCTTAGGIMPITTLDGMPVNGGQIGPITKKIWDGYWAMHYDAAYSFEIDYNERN

CC(=O)C(=O)O = experiment: Kinetic parameters, transamination (acetophenone formation at 245 nm), I77L-E133A-N245D-G292D; assay type: biochemical, Aspergillus terreus; conditions: other: I77L-E133A-N245D-G292D, phosphate buffer pH 8.0, 0.1 mM PLP
C[C@@H](N)c1ccccc1 = experiment: as above; assay type: biochemical, Aspergillus terreus; conditions: other: I77L-E133A-N245D-G292D, phosphate buffer pH 8.0, 0.1 mM PLP
[9] = substrate: CC(=O)C(=O)O; experiment: purified protein, by the assay type; conditions: other: WT-ATA, phosphate buffer pH 8.0, 0.1 mM PLP
[10] = phosphate buffer pH 8.0, 0.1 mM PLP

CC(=O)C(=O)O [pyruvate, pyruvic acid]
Kcat^pyruvate [1]: 3.87 ± 0.03 s⁻¹ | kcat/Km^pyruvate [1]: 1450 M⁻¹ s⁻¹ | Kcat^pyruvate [2]: 2.55 ± 0.01 s⁻¹ | kcat/Km^pyruvate [2]: 1710 M⁻¹ s⁻¹ | Kcat^pyruvate [3, 10]: 3.17 ± 0.01 s⁻¹ | kcat/Km^pyruvate [3, 10]: 2030 M⁻¹ s⁻¹ | Km ([3]; read-out: Km^pyruvate, phosphate buffer pH 8.0, 0.1 mM PLP): 1560 ± 70 µM | Kcat^pyruvate [4]: 1.96 ± 0.03 s⁻¹ | kcat/Km^pyruvate [4]: 990 M⁻¹ s⁻¹ | Kcat^pyruvate [5]: 2.76 ± 0.01 s⁻¹ | kcat/Km^pyruvate [5]: 1330 M⁻¹ s⁻¹ | Kcat^pyruvate [6]: 3.05 ± 0.02 s⁻¹ | kcat/Km^pyruvate [6]: 1180 M⁻¹ s⁻¹ | Kcat^pyruvate [7]: 1.89 ± 0.03 s⁻¹ | kcat/Km^pyruvate [7]: 3010 M⁻¹ s⁻¹ | Kcat^pyruvate [8]: 0.50 ± 0.01 s⁻¹ | kcat/Km^pyruvate [8]: 2220 M⁻¹ s⁻¹

C[C@@H](N)c1ccccc1 [α-MBA, (R)-(+)-α-methylbenzylamine]
Km ([3]; read-out: Km^α-MBA, phosphate buffer pH 8.0, 0.1 mM PLP): 800 ± 30 µM

Aspergillus terreus ω-transaminase mutant I77L-E133A-N245D-G292D (parent SEQ ID NO: 1; gene SEQ ID NO: 8) (Aspergillus terreus NIH2624; E133A/G292D/I77L/N245D)
Km (CC(=O)C(=O)O): 2590 ± 20 µM | Km (C[C@@H](N)c1ccccc1): 840 ± 50 µM

B1: Aspergillus terreus ω-transaminase, wild type (WT-ATA), SEQ ID NO: 1 (Aspergillus terreus NIH2624) (protein)
chain: T1 sequence (Q0C8G1 1-325)
Km [9]: 230 ± 20 µM
